Experimental data published in PubChem BioAssay AID248 (DTP/NCI, 2004).
Toxic doses and inconclusive results are not listed. Rule as the data show it: active = T/C of 150% or more; inactive = T/C below 125%.

System: L1210 leukemia ip in BDF1 mice, survival T/C
Assay: NCI In Vivo Anticancer Drug Screen. Data for tumor model L1210 Leukemia (intraperitoneal) in B6D2F1 (BDF1) mice
Conditions: endpoint: mean survival time, higher = longer survival
In short: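 In this screen, tumor-bearing mice given compound are compared to those given vehicle, and their survival values are reported as a treated-to-control quotient.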

Measured: T/C

Nc1ccc(OC(=O)Nc2ccc(O)cc2)cc1
inactive: dose: 53.0 mg/kg/injection, schedule: Q01DX Z (ip), vehicle: other 94 % of control | dose: 80.0 mg/kg/injection, schedule: Q01DX Z (ip), vehicle: other 97 % of control | dose: 80.0 mg/kg/injection, schedule: Q01DX Z (ip), vehicle: saline 89 % of control | dose: 120.0 mg/kg/injection, schedule: Q01DX Z (ip), vehicle: other 105 % of control | dose: 180.0 mg/kg/injection, schedule: Q01DX Z (ip), vehicle: other 100 % of control | dose: 180.0 mg/kg/injection, schedule: Q01DX Z (ip), vehicle: saline 92 % of control | dose: 270.0 mg/kg/injection, schedule: Q01DX Z (ip), vehicle: other 102 % of control | dose: 270.0 mg/kg/injection, schedule: Q01DX Z (ip), vehicle: saline 93 % of control | dose: 404.0 mg/kg/injection, schedule: Q01DX Z (ip), vehicle: other 100 % of control | dose: 405.0 mg/kg/injection, schedule: Q01DX Z (ip), vehicle: saline 92 % of control

O=C(CCNc1ccccc1)c1ccccc1
inactive: dose: 50.0 mg/kg/injection, schedule: Q01DX009 (ip), vehicle: saline 95 % of control | dose: 100.0 mg/kg/injection, schedule: Q01DX009 (ip), vehicle: saline 95 % of control | dose: 100.0 mg/kg/injection, schedule: Q04DX002 (ip), vehicle: saline 105 % of control | dose: 200.0 mg/kg/injection, schedule: Q04DX002 (ip), vehicle: saline 108 % of control

Cc1ccc(N)cc1S(=O)(=O)F
inactive: dose: 75.0 mg/kg/injection, schedule: Q01DX001 (ip), vehicle: saline 107 % of control | dose: 150.0 mg/kg/injection, schedule: Q01DX001 (ip), vehicle: saline 98 % of control | dose: 300.0 mg/kg/injection, schedule: Q01DX001 (ip), vehicle: saline 103 % of control

O=C(OCCc1ccccc1)c1ccccc1
inactive: dose: 100.0 mg/kg/injection, schedule: Q04DX002 (ip), vehicle: saline with Tween-80 100 % of control | dose: 200.0 mg/kg/injection, schedule: Q04DX002 (ip), vehicle: saline with Tween-80 100 % of control | dose: 400.0 mg/kg/injection, schedule: Q04DX002 (ip), vehicle: saline with Tween-80 103 % of control
